Measurements as given in US20070066636A1, “POLYMORPHS OF TARTRATE SALT OF 2-[2-(3-(R)-AMINO-PIPERIDIN-1-YL)-5-FLUORO-6-OXO-6H-PYRIMIDIN-1-YLMETHYL]-BENZONITRILE AND METHODS OF USE THEREFOR” (priority 2005, published 2007).
Where a name gives a salt, the structure may show the parent alone.

How the values were obtained:
Format in all cases: physicochemical
[1] = Moisture sorption/desorption analysis; conditions: for Weight Change: 25 C, Tables 2A, 2B (relative to weight at start of the event)
Method: Moisture sorption/desorption data were collected on a VTI SGA-100 Vapor Sorption Analyzer. Sorption and desorption data were collected over a range of 5% to 95% relative humidity (RH) at 10% RH intervals under a nitrogen purge. Sodium chloride (NaCl) and polyvinylpyrrolidone (PVP) were used as the calibration standards. Equilibrium criteria used for analysis were less than 0.0100% weight change in 5 minutes, with a maximum equilibration time of 180 minutes if the weight criterion was not met. The plotted data that contain the percent weight change values at various RH intervals are relative to the initial weight of the sample. The plotted data have not been corrected for the initial moisture content. However, the weight gain data provided in the tables for the various relative humidity ranges are calculated using the sample weight at the beginning of the particular RH event as the initial weight. In particular, the equilibration event wt. % change from initial wt. to 5% RH was calculated as [(wt at 5% RH−initial wt.)/initial wt.]*100; and the sorption event wt. % change from 5% RH to 95% RH was calculated as [(wt. at 95% RH−wt at 5% RH)/wt at 5% RH]*100; and the desorption event wt. % change from 95% RH to 5% RH was calculated as [(wt. at 5% RH−wt at 95% RH)/wt at 95% RH]*100. This type of analysis permits direct comparison of the experimental weight changes to the theoretical values predicted for the inter-conversion of anhydrates to hydrated forms.

[2] = Slurry interconversion studies in methanol; conditions: room temperature
Method: Slurry Experiments: Enough Compound I was added to a given solvent so that undissolved solids were present. The mixture was then agitated in a sealed vial at ambient temperature using either an orbital shaker or a rotating wheel. After several days the solids were isolated by vacuum filtration and allowed to dry at ambient temperature in the fume hood with the cap for the sample vial loosened.
In order to determine the relative stability of the polymorphs Compound I form A was slurried in separate experiments with roughly equal amounts of forms B, C and E in methanol at room temperature. After 12 days the solids were isolated and form A was recovered as the exclusive solid phase (Table 6). In addition to these experiments, slurries of forms B, C and D in the absence of other solid phases provided form A when slurried for 5 days in methanol at room temperature. […] It should be noted that the hydration states of these solid phases may be different for the different forms, which precludes an analysis of the true thermodynamic stability ordering through slurry experiments.

[3] = Relative humidity (RH) stress of solids, XRPD; conditions: for XRPD Pattern after RH stress: ambient, 21 d
Method: Relative Humidity (RH) Stress: Open vials containing solid samples were placed inside chambers containing saturated salt solutions along with a small amount of the undissolved salt. The chambers were sealed and allowed to stand at ambient temperature for several weeks. Samples were analyzed by X-ray powder diffraction (XRPD) immediately after removing the sample from the RH chamber. The RH values for these salt solutions were obtained from an ASTM standard. See a) “Preparation and Use of Relative Humidity Chambers” SSCI Method MTD 032.01 Mar. 3, 2003; and b) “Standard Practice for Maintaining Constant Relative Humidity by Means of Aqueous Solutions” ASTM Standard E 104-02 (2002).

[4] = Thermal analysis (TGA/DSC), thermal stability
Method: Thermogravimetric analyses (TGA) were carried out on a TA Instruments 2950 thermogravimetric analyzer. The calibration standards were nickel and Alumel™. Samples were placed in an aluminum sample pan, inserted into the TG furnace, and accurately weighed. The samples were heated in a stream of nitrogen at a rate of 10° C./min. The temperature of the furnace was equilibrated at 25° C. prior to the analysis of the samples. The percent mass loss values provided in the tables are rounded to the nearest 0.1%.
Differential scanning calorimetry (DSC) analyses were carried out on a TA Instruments differential scanning calorimeter 2920. Accurately weighed samples were placed in either crimped pans, crimped pans with manual pinhole or uncrimped pans to allow for pressure release. Each sample was heated under nitrogen at a rate of 10° C./min to 350° C. Indium metal was used as the calibration standard. Temperatures are reported at the transition maxima and reported to one decimal place, and the integrated events are expressed in J/g and rounded to the nearest whole number.

[5] = Solubility estimates in different solvents; conditions: thermodynamic from solid, ambient temperature, visual estimate
Method: A weighed sample (typically about 20 mg) of Compound I form A was treated with aliquots of the test solvent at ambient temperature. The aliquot volumes were typically 250 μL. Periodically, the mixture was sonicated between additions to facilitate dissolution. Complete dissolution of the test material was determined by visual inspection. Solubilities were estimated from these experiments based on the total solvent used to provide complete dissolution. […] If dissolution occurred after the last aliquot was added then solubility is expressed as “greater than or equal to” (≧). The solubility values for Compound I (Table 4) have been rounded to the nearest whole number. The true equilibrium solubilities for the compound may be different than the values provided here because of the use of solvent aliquots that were too large or due to a slow rate of dissolution.

In the case of `N#Cc1ccccc1Cn1c(N2CCC[C@@H](N)C2)ncc(F)c1=O` [Form A, tartrate salt of 2-[2-(3-(R)-amino-piperidin-1-yl)-5-fluoro-6-oxo-6H-pyrimidin-1-ylmethyl]-benzonitrile], the “hydrate type from moisture sorption/desorption analysis” value [1] is reported as “variable hydrate”, the “solid form of post moisture sorption/desorption sample by XRPD” value ([1]; after 5%-95%-5% RH cycle) is reported as “form A” and the “molecules of water present for every molecule of compound” value ([1]; at 95% RH, calculated from desorption weight change and molecular weight) is reported as “approximately 1”. For the same molecule, the “Weight Change” value ([1]; desorption, 95% RH to about 5% RH) was −3.77%, the “Weight Change” value ([1]; equilibration, initial weight to about 5% RH) was −1.44% and the “initial weight loss from ambient conditions to 5% RH” value ([1]; moisture sorption/desorption) was “approximately 1.4%”. For the same molecule, the “weight gain between 5% and 95% RH” value ([1]; moisture sorption/desorption) was “about 4.00%”, the “Weight Change” value ([1]; sorption, 5% RH to about 95% RH) was 4.00% and the “relative stability of polymorphs” value [2] was “more stable than form B, C, D, or E”. For the same molecule, the “XRPD Pattern after RH stress” value ([3]; 58% RH stress) was “Form A”, the “XRPD Pattern after RH stress” value ([3]; 75% RH stress) was “Form A” and the “XRPD Pattern after RH stress” value ([3]; 84% RH stress) was “Form A”. For the same molecule, the “phase change upon RH stress” value ([3]; various RH conditions, room temperature, several weeks) was “none of these samples had undergone a phase change”, the “XRPD Pattern after heating” value ([4]; TGA to 150° C. & recovered) was “Form A” and the “thermally stable up to” value ([4]; thermal analysis) was “about 200 °C”. For the same molecule, the solubility ([5]; organic solvent or mixture, 1,4-dioxane) was < 3000 µg/mL, the solubility ([5]; organic solvent or mixture, acetone) was < 4000 µg/mL and the solubility ([5]; organic solvent or mixture, acetonitrile) was < 3000 µg/mL. For the same molecule, the solubility ([5]; organic solvent or mixture, chloroform) was < 4000 µg/mL, the solubility ([5]; organic solvent or mixture, dichloromethane) was < 3000 µg/mL and the solubility ([5]; organic solvent or mixture, diisopropyl ether) was < 3000 µg/mL. For the same molecule, the solubility ([5]; organic solvent or mixture, dimethylformamide) was ≥ 81000 µg/mL, the solubility ([5]; organic solvent or mixture, ethanol) was < 3000 µg/mL and the solubility ([5]; organic solvent or mixture, ethyl acetate) was < 3000 µg/mL. For the same molecule, the solubility ([5]; organic solvent or mixture, hexafluoroisopropanol) was ≥ 80000 µg/mL, the solubility ([5]; organic solvent or mixture, hexanes) was < 3000 µg/mL and the solubility ([5]; organic solvent or mixture, isopropanol) was < 3000 µg/mL. For the same molecule, the solubility ([5]; organic solvent or mixture, isopropyl acetate) was < 3000 µg/mL, the solubility ([5]; organic solvent or mixture, methanol) was ≥ 16000 µg/mL and the solubility ([5]; organic solvent or mixture, methyl ethyl ketone) was < 3000 µg/mL. The solubility ([5]; organic solvent or mixture, nitromethane) was < 3000 µg/mL, the solubility ([5]; organic solvent or mixture, tetrahydrofuran) was < 3000 µg/mL and the solubility ([5]; organic solvent or mixture, toluene) was < 3000 µg/mL. For the same molecule, the solubility ([5]; organic solvent or mixture, trifluoroethanol) was ≥ 81000 µg/mL and the solubility ([5]; water) was ≥ 41000 µg/mL.
